Six compounds from US9156828B2, “Tricyclic amidine derivatives as HIV attachment inhibitors” (priority 2012, dated 2015) can be followed below.

Each structure is given as a SMILES string. Read-outs that look alike come from different tables or passages of the source.

For the assay, the system named is HIV-1 LAI envelope single-round infectious reporter virus. As to the kind of experiment: Single-round infectious HIV-1 LAI luciferase reporter virus infection of MT2 cells. The class given is cell-based. To be noted: Human immunodeficiency virus 1, MT2, 72 h. From the text:
Virus Production— • Human embryonic Kidney cell line, 293T (HEK 293T), was propagated in Dulbecco's Modified Eagle Medium (Invitrogen, Carlsbad, Calif.) containing 10% fetal bovine serum (FBS, Sigma, St. Louis, Mo.). The human T-cell leukemia cell MT2 (AIDS Research and Reference Reagent Program, Cat. 237) was propagated in RPMI 1640 (Invitrogen, Carlsbad, Calif.) containing 10% fetal bovine serum (FBS, Hyclone, Logan, Utah)
Virus Infection— • Single-round infectious reporter virus was produced by co-transfecting HEK 293T cells with plasmide expressing the HIV-1 LAI envelope along with a plasmid containing an HIV-1 LAI proviral cDNA with the envelope gene replaced by a firefly luciferase reporter gene (Chen et al., Ref 41). Transfections were performed using lipofectAMINE PLUS reagent as described by the manufacturer (Invitrogen, Carlsbad, Calif.). Experimental Procedure • 1. MT2 cells were plated in black, 384 well plates at a cell density of 5×10^3 cells per well in […] RPMI 1640 containing 10% FBS. • 2. Compound (diluted in dimethylsulfoxide and growth medium) was added to cells at 12.5 μl/well, so that the final assay concentration would be […]. • 3. 12.5 μl of single-round infectious reporter virus in Dulbecco's Modified Eagle Medium was added to the plated cells and compound at an approximate multiplicity of infection (MOI) of 0.01, resulting in a final volume of 50 μl per well. • 4. Virus-infected cells were incubated at 37 degrees Celsius in a CO2 incubator and harvested 72 h after infection. • 5. Viral infection was monitored by measuring luciferase expression in the infected cells using a luciferase reporter gene assay kit (Steady-Glo, Promega, Madison, Wis.) as described by the manufacturer. Luciferase activity was then quantified by measuring luminescence using an EnVision Multilabel Plate Readers (PerkinElmer, Waltham, Mass.). • 6. The percent inhibition for each compound was calculated by quantifying the level of luciferase expression in cells infected in the presence of each compound as a percentage of that observed for cells infected in the absence of compound and subtracting such a determined value from 100. • 7. An EC50 provides a method for comparing the antiviral potency of the compounds herein. The effective concentration for fifty percent inhibition (EC50) was calculated with the Microsoft Excel Xlfit curve fitting software. For each compound, curves were generated from percent inhibition calculated at 10 different concentrations by using a four parameter logistic model (model 205). Table 1 is the key for the data in Table 2.
(A reporter such as luciferase makes a cellular process visible.)

[1] abbreviates: read-out: EC50 Group from Table 1.

The term EC50 denotes the midpoint of the concentration-response curve. `O=C(C(=O)N1CCN(C2=Nc3ccccc3Oc3ccc(Cl)cc32)CC1)c1c[nH]c2ccccc12` [Compound 1001] showed an EC50 of 706 nM. For the same compound, under setting [1], the concentration for a half-maximal effect (EC50) is > 500 nM.
As for `O=C(C(=O)N1CCN(C2=Nc3cc(Cl)ccc3Nc3ccccc32)CC1)c1c[nH]c2ccccc12` [Compound 1002], the concentration giving a half-maximal response (EC50) under setting [1] is > 500 nM.
Regarding `COc1cnc(-n2cncn2)c2[nH]cc(C(=O)C(=O)N3CCN(C4=Nc5ccccc5Oc5ccc(Cl)cc54)CC3)c12` [Compound 1003], the concentration for a half-maximal effect (EC50) under setting [1] is < 500 nM.
Same read-out and setting: next, `O=C(C(=O)N1CCN(C2=Nc3ccccc3Oc3ccc(Cl)cc32)CC1)c1c[nH]c2c(Br)ccc(F)c12` [Compound 1004]: > 500 nM.
On to `COc1cnc(-n2cnc(C)n2)c2[nH]cc(C(=O)C(=O)N3CCN(C4=Nc5ccccc5Oc5ccc(Cl)cc54)CC3)c12` [Compound 1005], for which it took 1.83 nM to reach a half-maximal effect (EC50). The EC50 under setting [1] is < 500 nM.
Turning to `COc1cnc(-n2cnc(C)n2)c2[nH]cc(C(=O)C(=O)N3CCN(C4=Nc5cc(Cl)ccc5Nc5ccccc54)CC3)c12` [Compound 1006], the EC50 under setting [1] is < 500 nM.
